Laboratory results from ChEMBL document CHEMBL1201862, “PubChem BioAssay data set” (2004).
Calls of active or inactive are those of the source.

Tests used:
[1] = HepG2 cell cytotoxicity, dose response, cytotoxicity control for Shn3 inhibitor project, CellTiter-Glo, cherry-picked (AID 624134); format: functional, cell-based
[2] = control 3'UTR Renilla luciferase suppression, dose response, counter-screen for Shn3 inhibitor project, cell-based, Clone20-Shn3RL, cherry-picked (AID 624133); format: functional
[3] = Shn3 3'UTR reporter inhibitors, dose response, cell-based, Clone20 osteoblasts, firefly luciferase, cherry-picked (AID 624132); format: functional;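 further: firefly luciferase luminescence from reporter carrying the Shn3 3'UTR in osteoblasts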
BJ [4] = assay: cytotoxicity toward Ras-transformed BJeLR fibroblasts, dose response, cell-based, alamar blue fluorescence, cherrypicked samples (AID 2631); format: functional; settings: Homo sapiens;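 further: confirmatory dose-response assay in RAS-dependent BJ fibroblasts engineered with TERT, LT and ST, with cytotoxicity read by fluorescence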
[5] = biological target: T1, Sentrin-specific protease 7 (Homo sapiens, UniProt Q9BQF6); format: functional;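 further: Luminescence-based dose-response confirmation of ultra-high-throughput screening hits, measuring inhibition of SENP7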
T1 sequence (Q9BQF6 whole entry): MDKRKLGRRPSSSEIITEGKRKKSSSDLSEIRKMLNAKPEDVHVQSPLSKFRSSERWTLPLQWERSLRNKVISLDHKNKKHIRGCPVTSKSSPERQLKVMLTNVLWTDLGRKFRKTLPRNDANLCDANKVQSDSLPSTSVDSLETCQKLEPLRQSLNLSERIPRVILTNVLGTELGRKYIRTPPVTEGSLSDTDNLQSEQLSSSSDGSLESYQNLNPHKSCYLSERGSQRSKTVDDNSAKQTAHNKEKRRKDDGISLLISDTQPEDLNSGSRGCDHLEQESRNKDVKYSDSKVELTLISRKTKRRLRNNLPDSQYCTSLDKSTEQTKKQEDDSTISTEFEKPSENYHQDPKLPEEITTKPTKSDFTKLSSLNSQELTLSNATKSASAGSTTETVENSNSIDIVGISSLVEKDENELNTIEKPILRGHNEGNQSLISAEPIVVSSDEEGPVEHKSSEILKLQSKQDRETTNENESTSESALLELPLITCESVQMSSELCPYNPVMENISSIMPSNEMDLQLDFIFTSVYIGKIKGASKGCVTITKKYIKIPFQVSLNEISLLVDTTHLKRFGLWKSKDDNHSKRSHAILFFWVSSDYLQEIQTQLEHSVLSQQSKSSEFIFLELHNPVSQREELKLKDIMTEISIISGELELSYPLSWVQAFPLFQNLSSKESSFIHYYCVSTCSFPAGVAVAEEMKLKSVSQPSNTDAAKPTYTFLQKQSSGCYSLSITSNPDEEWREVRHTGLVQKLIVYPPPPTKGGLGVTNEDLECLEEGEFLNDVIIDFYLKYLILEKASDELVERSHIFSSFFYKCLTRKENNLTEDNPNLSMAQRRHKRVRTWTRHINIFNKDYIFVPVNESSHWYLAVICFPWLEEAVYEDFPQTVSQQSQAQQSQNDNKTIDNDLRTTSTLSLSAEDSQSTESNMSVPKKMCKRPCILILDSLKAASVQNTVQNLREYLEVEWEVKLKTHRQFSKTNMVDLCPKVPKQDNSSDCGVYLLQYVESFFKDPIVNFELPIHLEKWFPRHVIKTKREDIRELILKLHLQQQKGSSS

[6] = biological target: T2, Sentrin-specific protease 8 (Homo sapiens, UniProt Q96LD8); format: functional;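 further: luminescence read-out of SENP8 inhibition, dose-response confirmation following an ultra-high-throughput screen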
T2 sequence (Q96LD8 whole entry): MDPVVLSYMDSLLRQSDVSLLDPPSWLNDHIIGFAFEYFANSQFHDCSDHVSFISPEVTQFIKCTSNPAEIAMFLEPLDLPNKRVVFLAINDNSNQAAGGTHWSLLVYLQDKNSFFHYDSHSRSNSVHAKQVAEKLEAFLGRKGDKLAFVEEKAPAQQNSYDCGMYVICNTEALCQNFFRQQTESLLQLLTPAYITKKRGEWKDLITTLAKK

[7] = biological target: T3, Sentrin-specific protease 6 (Homo sapiens, UniProt Q9GZR1); format: functional;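 further: Luminescence-based dose-response confirmatory assay of SENP6 inhibition, following up an ultra-high-throughput screen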
T3 sequence (Q9GZR1 whole entry): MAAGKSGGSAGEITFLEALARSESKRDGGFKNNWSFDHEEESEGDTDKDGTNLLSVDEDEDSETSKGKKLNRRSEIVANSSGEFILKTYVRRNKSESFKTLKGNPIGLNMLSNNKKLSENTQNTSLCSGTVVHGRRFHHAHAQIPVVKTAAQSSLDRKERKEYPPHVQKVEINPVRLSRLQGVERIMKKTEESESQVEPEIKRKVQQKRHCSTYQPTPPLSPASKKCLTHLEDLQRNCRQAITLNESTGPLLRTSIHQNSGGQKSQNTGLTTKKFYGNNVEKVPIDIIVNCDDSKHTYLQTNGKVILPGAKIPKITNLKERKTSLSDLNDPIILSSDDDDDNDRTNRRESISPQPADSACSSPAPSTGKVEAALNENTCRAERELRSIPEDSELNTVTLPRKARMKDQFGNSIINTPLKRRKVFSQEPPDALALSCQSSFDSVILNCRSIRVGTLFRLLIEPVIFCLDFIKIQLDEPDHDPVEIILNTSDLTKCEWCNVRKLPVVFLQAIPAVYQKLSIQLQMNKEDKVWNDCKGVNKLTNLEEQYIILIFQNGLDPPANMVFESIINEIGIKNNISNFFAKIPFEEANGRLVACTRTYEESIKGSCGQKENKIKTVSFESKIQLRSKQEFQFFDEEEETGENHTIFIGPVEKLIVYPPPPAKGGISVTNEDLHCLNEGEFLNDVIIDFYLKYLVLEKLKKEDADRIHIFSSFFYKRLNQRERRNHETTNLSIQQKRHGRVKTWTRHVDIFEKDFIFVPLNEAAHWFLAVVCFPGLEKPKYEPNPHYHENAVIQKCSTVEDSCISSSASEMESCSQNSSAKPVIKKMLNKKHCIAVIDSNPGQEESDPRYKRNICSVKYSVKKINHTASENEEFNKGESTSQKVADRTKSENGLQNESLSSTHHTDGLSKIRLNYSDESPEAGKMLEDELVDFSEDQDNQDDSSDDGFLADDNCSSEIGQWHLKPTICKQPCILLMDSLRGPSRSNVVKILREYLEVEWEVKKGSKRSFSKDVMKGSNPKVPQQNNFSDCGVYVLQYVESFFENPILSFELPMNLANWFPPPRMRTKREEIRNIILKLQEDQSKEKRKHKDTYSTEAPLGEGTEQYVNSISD

Caspase-3 = biological target: T4, Caspase-3 (Homo sapiens, UniProt P42574); format: functional;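 further: Dose-response selectivity test against caspase-3 for candidate inhibitors of sentrin-specific proteases (SENPs)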
T4 sequence (P42574 whole entry): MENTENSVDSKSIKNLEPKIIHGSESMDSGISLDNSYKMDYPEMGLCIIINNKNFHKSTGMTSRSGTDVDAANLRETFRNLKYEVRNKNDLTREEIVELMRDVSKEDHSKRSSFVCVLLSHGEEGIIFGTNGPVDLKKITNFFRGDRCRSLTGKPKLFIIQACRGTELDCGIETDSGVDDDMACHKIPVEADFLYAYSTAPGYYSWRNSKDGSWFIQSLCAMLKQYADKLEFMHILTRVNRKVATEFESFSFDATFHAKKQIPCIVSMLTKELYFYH

[8] = inhibitors of SNCA 5'UTR-driven reporter translation, confirmation, H4 neuroglioma cells, luminescence (AID 1988); format: functional, cell-based
[9] = cytotoxicity toward DRD oncogenic fibroblasts, dose response, cell-based, non-viral oncogenic, luminescence (AID 1934); format: functional; settings: Homo sapiens
BJ [10] = assay: cells; format: functional, cell-based; settings: Homo sapiens
BJ [11] = assay: cytotoxicity toward BJ-TERT fibroblasts, dose response, cell-based, RAS-independent, luminescence (AID 1933); format: functional; settings: Homo sapiens
[12] = inhibitors of firefly luciferase expression or activity, dose response, H4 neuroglioma cells, luminescence (AID 1990); format: functional, cell-based
[13] = Luminescence Cell-Based Dose Response HTS to Identify Inhibitors of 5'UTR Stem-Loop Driven Prion Protein mRNA Translation in H4 Neuroglioblastoma Cells. [Related pubchem assays: 1827 (Project Summary), 1813 (Primary HTS)]; format: functional
BJ [14] = assay: cytotoxicity toward BJ-TERT-LT-ST fibroblasts, dose response, cell-based, RAS-independent, luminescence (AID 1935); format: functional; settings: Homo sapiens;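 further: BJ fibroblasts immortalized with TERT plus LT and ST oncogenes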
Streptokinase A = biological target: T5, Streptokinase A (Streptococcus pyogenes serotype M1, UniProt P10520); assay: S. pyogenes streptokinase expression inhibitors, potency, dose response, plasminogen activation absorbance, OD405 (AID 1914); format: functional, Streptococcus pyogenes M1 GAS;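 further: secreted streptokinase activity via plasminogen activation per viability signal from cell pellet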
T5 sequence (P10520 whole entry): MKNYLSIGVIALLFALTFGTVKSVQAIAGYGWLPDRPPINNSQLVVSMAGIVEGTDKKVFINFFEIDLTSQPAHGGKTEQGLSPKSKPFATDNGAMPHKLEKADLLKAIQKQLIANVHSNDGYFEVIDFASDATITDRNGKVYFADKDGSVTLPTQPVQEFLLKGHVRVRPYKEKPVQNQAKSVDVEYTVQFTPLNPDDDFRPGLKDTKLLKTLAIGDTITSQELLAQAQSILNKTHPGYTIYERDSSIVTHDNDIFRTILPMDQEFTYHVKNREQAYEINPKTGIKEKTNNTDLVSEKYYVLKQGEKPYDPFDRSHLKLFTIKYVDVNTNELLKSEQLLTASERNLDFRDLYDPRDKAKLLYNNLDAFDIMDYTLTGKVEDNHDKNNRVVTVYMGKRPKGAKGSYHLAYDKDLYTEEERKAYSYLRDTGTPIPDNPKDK

[15] = tested on: Streptococcus sp. 'group A'; assay: growth inhibition of control SK(-) GAS strain, dose response, counter-screen for streptokinase expression inhibitor project, luminescence, kanamycin, BacTiterGlo, confirmation (AID 1900); format: functional, organism-based
Streptococcus = assay: Group A Streptococcus viability loss, dose response, counter-screen for streptokinase expression inhibitor project, luminescence, BacTiterGlo (AID 1915); format: functional, organism-based;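 further: potency for reduction of bacterial viability or growth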
[16] = inhibitors of clade B AD8 Env fusion, dose response, cell-based, cherry-pick (AID 652062); format: functional;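 further: luciferase signal from cell-cell fusion driven by HIV-1 clade B AD8 Env; potency is for inhibitors of fusion seen as a drop in luminescence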
[17] = HEK293 cell cytotoxicity, dose response, cytotoxicity control, plate reader, cherry-picked samples (AID 743446); format: functional, cell-based
[18] = MC4R antagonists, dose response, counter-screen for LGR2 antagonist project, cell-based, plate reader, cherry pick (AID 743444); format: functional;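 further: transfected HEK 293 cells stimulated with alpha-MSH peptide; potency of inhibitors of the alpha-MSH evoked signal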
[19] = LGR2 antagonists, dose response, cell-based, HEK293, CRE-luciferase reporter, cherry pick, set 2 (AID 743343); format: functional;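 further: transfected cells were stimulated with diluted bursicon conditioned medium after compound addition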
[20] = HepG2 cell cytotoxicity, dose response, cytotoxicity control, plate reader, cherry-pick, antagonist series (AID 743416); format: functional, cell-based
[21] = A549 cell cytotoxicity, dose response, cytotoxicity control, plate reader, cherry-pick, antagonist series (AID 743412); format: functional, cell-based

Row | SMILES | AC50 [1] | AC50 [2] | AC50 [3] | IC50 [5] | IC50 [6] | IC50 [7] | IC50 (Caspase-3) | further results
1 | CCN(C(=O)C1CCN(c2nc(-c3ccc(OC)cc3)no2)CC1)c1ccc(OC)cc1 | 62.5 µM (active) | 11.8 µM (active) | 3.17 µM (active) |  |  |  |  | 
2 | O=C(CSc1ccccn1)NCc1ccc2c(c1)OCO2 |  |  |  |  |  |  |  | EC50 (BJ [4]): > 133 µM (inactive)
3 | C/C(=N\Nc1ccc([N+](=O)[O-])cc1)c1ccco1 |  |  |  | 6.51 µM (active) | 73.8 µM (active) | 10.6 µM (active) | 18.4 µM (active) | 
4 | CCOc1ccc(CC(=O)Nc2ccc(NC(=O)c3ccco3)cc2)cc1OCC |  |  |  |  |  |  |  | EC50 [8]: 8.44 µM (active); EC50 [9]: > 150 µM (not active); EC50 (BJ [10]): 2.55 µM (active); EC50 (BJ [4]): > 66.7 µM (inactive); EC50 (BJ [11]): > 150 µM (not active); EC50 [12]: 11 µM (active); EC50 [13]: 6.05 µM (active); EC50 (BJ [14]): 9.89 µM (inconclusive)
5 | COc1ccc(-c2nc(NC(=O)C3CC(=O)N(c4ccc5c(c4)OCCO5)C3)sc2C)cc1 (stereo not given) | 47.3 µM (active) | 13.4 µM (active) | 5.24 µM (active) |  |  |  |  | EC50 (Streptokinase A): > 150 µM (not active); EC50 [15]: 21.7 µM (active); EC50 (Streptococcus): 63.6 µM (active)
6 | C/C(=N\OC(=O)c1ccc(Br)cc1)c1ccccn1 |  |  |  | 1.01 µM (active) | 2.43 µM (active) | 1.31 µM (active) | 1.26 µM (active) | 
7 | CC(=O)c1ccccc1OCCOCCOCCOc1ccccc1C(C)=O |  |  |  |  |  |  |  | EC50 [8]: > 120 µM (not active); EC50 [9]: > 150 µM (not active); EC50 (BJ [10]): > 150 µM (not active); EC50 (BJ [4]): > 133 µM (inactive); EC50 (BJ [11]): 27 µM (active); EC50 [12]: > 120 µM (not active); EC50 (BJ [14]): > 150 µM (inconclusive)
8 | Cc1cccc(-n2ncc3c(N4CCC(C)CC4)ncnc32)c1 |  |  |  | 7.97 µM (active) | 27.9 µM (active) | 21.9 µM (active) | 19.5 µM (active) | 
9 | COc1cccc(C(=O)Oc2ccc(/C=N/Nc3ccc(C(=O)O)cc3)cc2OC)c1 |  |  |  | 12.3 µM (active) | 17.1 µM (active) | 14.3 µM (active) | 74.2 µM (active) | EC50 (Streptokinase A): > 150 µM (not active); EC50 [15]: 5 µM (active); EC50 (Streptococcus): 19 µM (active)
10 | COc1ccc(NC(=O)CSc2ncccc2C(=O)OC(C)C)cc1OC | 41.9 µM (active) | 1.54 µM (active) | 4.1 µM (active) |  |  |  |  | 
11 | N#Cc1ccsc1NC(=O)CSc1nnnn1-c1ccc(O)cc1 |  |  |  | 10.3 µM (active) | 36.8 µM (active) | 30.5 µM (active) | 20.6 µM (active) | 
12 | CC1CN(S(=O)(=O)c2cc(C(=O)NCCC3=CCCCC3)ccc2Cl)CC(C)O1 (stereo not given) |  |  |  |  |  |  |  | AC50 [16]: 7.96 µM (active)
13 | Oc1nc2ccccc2n1C1CCN(C(c2cccs2)c2nnnn2Cc2ccccc2)CC1 (stereo not given) | > 70 µM (inactive) | 6.11 µM (active) | 2.98 µM (active) |  |  |  |  | AC50 [17]: 29.8 µM (active); AC50 [18]: 1.76 µM (active); AC50 [19]: 2.74 µM (active); AC50 [20]: 44.4 µM (active); AC50 [21]: 13.7 µM (active)
